Assays:
[1] = Cmax in human plasma at 200 mg qd for 4 days; format: ADME, organism-based; set-up: dose 200 mg
[2] = AUC (0 to tau) in human plasma at 200 mg qd for 4 days; format: ADME, organism-based

SMILES: CC(=O)N1CCN(c2ccc(OCC3COC(Cn4ccnc4)(c4ccc(Cl)cc4Cl)O3)cc2)CC1 (configuration not stated) [KETOCONAZOLE]
- Cmax [1]: 3770 ng/mL
- AUC tau at 96 h [2]: 16600 ng·h/mL
